Reference: patent US4632922A, “Oxomorpholinyl dimer and rescue of anthracycline and mitomycin C damage” (The United States of America as represented by the …, priority 1985, dated 1986)

What was measured:
[1] = system: drug-induced skin necrosis; assay: Protection by DHM3 against drug-induced skin necrosis in the swine model; format: in vivo; conditions: for Percent Reduction of Maximal Ulcer Size: DHM3 15 min later
Method: (§1) DOX HCl (2.0 mg/ml) was administered intradermally (i.d.) with a 25 gauge needle inserted approximately 4 to 5 mm into the skin. Following the injection of 0.5, 0.75 or 1.0 ml (1.0, 1.5, or 2.0 mg, respectively) DOX solution, the syringe was removed from the hub leaving the needle in place. After the indicated time interval, 1.0 ml (10 mg) DHM3 was injected through the same needle and the needle was then removed. Control sites received 1.0 ml sterile water instead of DHM3. The injection sites were along the mid-lateral aspect of each side of the swine and were 4-5 cm apart (6-8 injection sites per side). One animal was used for a dose experiment where DOX, 0.5 ml/site was injected along one side and 1.0 ml/site was injected along the contralateral side. Fifteen minutes later, DHM3 or water was injected into alternating sites as described above. A second animal received DOX, 0.75 ml/site along both sides. DHM3 or water was injected into alternating sites at times varying from 5 to 120 minutes following DOX administration.
In a separate study, equimolar amounts of several compounds used in experimental or clinical cancer chemotherapy were injected into pig skin using the same method described above. Paired injection sites were treated 15 minutes later with either H2 O or DHM3 in duplicate.
All lesions were measured by a single observer with metric calipers three times weekly for two weeks, followed by weekly measurements thereafter. The areas of skin ulceration and induration were estimated by the product of the cross perpendicular diameters. The total toxicity of DOX-induced skin ulceration was determined by calculating the area under the ulceration-time curve (AUC) in mm^2 -days.

swine skin = assay: Intradermal DHM3 alone (control injections), tolerance and histology in swine; format: in vivo, miniature white swine
Method: In order to produce anthracycline induced tissue damage, clinical grade doxorubicin (DOX) hydrochloride was obtained as a representative anthracycline chemical from the Drug Synthesis Branch, Developmental Therapeutics Program, National Cancer Institute. Each vial contained 10 mg DOX hydrochloride and 50 mg lactose which was reconstituted with 5.0 ml sterile 0.9% NaCl solution to give a final drug concentration of 2.0 mg/ml. DHM3 solution was prepared by dissolving 10 mg in ice-cold water which had been purged with N2 gas for 5 minutes. Dissolution was facilitated by brief sonication to give a final concentration of 10 mg/ml. The solution was kept cold (≈4° C.) and protected from air and light.
Female weanling miniature white swine weighing approximately 12 kg were obtained from the Veterinary Resources Branch, National Institutes of Health. The development of this strain of swine has been described previously (Sachs, et al., Transplantation 22:559-567, 1976). Each animal was housed in a 6×4 ft metabolic cage and was fed standard NIH show chow, 1.5 lbs twice daily.
as §1, with “DHM3 or water was injected into alternating sites at times varying from 5 to 120 minutes following DOX administration.” left out

[2] = Stability of DHM3 in water upon exposure to air; format: physicochemical
Method: Oxazinone 2 (6.0 g, 0.019 mol) was dissolved in 500 ml of 2-propanol (Fisher). The solution was irradiated with a 450 W mercury immersion lamp through a Pyrex filter. Throughout the reacion the photochemical apparatus was immersed in a bath kept at 0° C. and nitrogen was bubbled through the solution. The disappearance of the oxazinone chromophore was monitored by UV spectroscopy. After 24 h, when the UV maximum at 323 nm had disappeared, the irradiation was stopped, and the solvent quickly rotary evaporated without delay at ambient temperature (20°-28° C.) first at 15-20 Torr, then at 1 Torr. The residue was dissolved in 70 ml of chloroform and the solution was stored in a freezer at about -18° C. for 6 days. The resulting pricipitate was collected by suction filtration, washed thoroughly with cold chloroform (≈10° C.) and dried under vaccuum to give 2.9 g (48%) of a white powder, mp 121°-124° C. An additional crop of crystals (0.64 g) was obtained from the mother liquors after two more weeks in the freezer. […] Minor peaks in the spectrum were present in areas compatible with the presence of other stereoisomers. Infrared and analytical data are as follows: IR (KBr) 3160, 2900, 1715, 1455, 1285, 1220, 1040, 770, 715 cm^-1; anal. calcd. for C14 H24 N2 O6 : C, 53.15; H, 7.65; N, 8.85. Found: C, 53.00; H, 7.70; N, 8.84. […]

SMILES: CC1(CO)COC(=O)C(C)(C2(C)NC(C)(CO)COC2=O)N1 (stereo not drawn) [DHM3, bi(3,5-dimethyl-5-hydroxymethyl-2-oxomorpholin-3-yl)]
- Percent Reduction of Maximal Ulcer Size ([1]; against 4'-Epidoxorubicin, Exper. 4): 51%
- Percent Reduction of Maximal Ulcer Size ([1]; against 4-Demethoxydaunorubicin, Exper. 4): 79%
- Percent Reduction of Maximal Ulcer Size ([1]; against 5-Iminodaunorubicin, Exper. 3): 53%
- Percent Reduction of Maximal Ulcer Size ([1]; against Aclarubicin, Exper. 4): 46%
- Percent Reduction of Maximal Ulcer Size ([1]; against Adriamycin, Exper. 1): 77%
- Percent Reduction of Maximal Ulcer Size ([1]; against Adriamycin, Exper. 2): 40%
- Percent Reduction of Maximal Ulcer Size ([1]; against Daunorubicin, Exper. 2): 39%
- Percent Reduction of Maximal Ulcer Size ([1]; against Menogaril, Exper. 4): 61%
- Percent Reduction of Maximal Ulcer Size ([1]; against Mitomycin C, Exper. 3): 58%
- protection against drug-induced skin necrosis ([1]; against Mitoxantrone): no protection observed
- protection against drug-induced skin necrosis ([1]; against Vinblastine): no protection observed
- protection against drug-induced skin necrosis ([1]; against Vincristine): no protection observed
- protection against tissue necrosis ([1]; several anthracycline analogs and mitomycin C): effective in all cases
- protection against skin injury ([1]; vinca alkaloid and mitoxantrone): did not protect
- tissue injury (histology) (swine skin): did not cause any tissue injury except for mild upper dermis congestion
- tolerance of control i.d. injections (swine skin): well tolerated
- ulcer formation (swine skin): no ulcer formation occurred
- stability to air in water [2]: quickly gives rise to an absorption maximum at 310 nm, characteristic of the oxazinone
